In brackets after ≈: the same amount, converted by molar mass.
How the values were obtained:
Experiment in all cases: MIC, 96-well microplate microdilution (Example 14)
Assay type in all cases: cell-based
S. aureus (ATCC 292213) = conditions: for MIC: Staphylococcus aureus, ATCC292213, Table 5, read-out: Minimum inhibitory concentration (MIC)
Experimental: (§1) The bacteriostatic properties of the derivatives are evaluated by measuring their minimum inhibitory concentration (MIC) on the bacteria tested. These measurements are made using the 96-well microplate microdilution method according to the conditions defined below. The minimum inhibitory concentrations (MIC) are tested on Gram-positive bacterial strains according to the recommendations of the “Clinical Laboratory Standards Institute” (Clinical-Laboratory-Standards-Institute, 6th ed. Approved standard M100-S17. CLSI, Wayne, Pa., 2007). The Gram-positive bacteria studied are as follows: L. monocytogenes (CIP 103575), E. faecalis (ATCC® 29212™) and S. aureus (ATCC® 292213 ™). The cultures studied, freshly isolated (after incubation on a blood agar at 37° C. for 18 h), are taken up in sterile water (10 mL) until obtaining a 0.5 McFarland (Mc) suspension i.e. 1 to 2×10^8 CFU (bacteria)/cm^3. The bacterial suspension was then diluted to obtain a final concentration of 5×10^5 CFU/cm3. Each well contains an identical quantity of Mueller-Hinton medium (a rich medium for bacterial culture) and bacteria with final 5×10^5 CFU/cm3. The test compounds of interest are solubilized in 2.5% of ethanol before being diluted to different concentrations two by two. On the multiwell plate, a first series has been planned comprising the culture medium without the test compound of interest. It corresponds to the growth control (control well). These controls serve as reference for comparing bacterial growth with that of the subsequent wells comprising different concentrations of the test compound of interest. The second series of wells comprises the mother solution for the test compound of interest for a concentration in the wells of 4 mM. Each series of wells was diluted two by two until the last series for a final concentration of 0.003 mM. Each concentration is duplicated in the same plate. The plate is incubated for 18 h at 37° C. […] If there is antibacterial activity, the bacterial growth is inhibited, which means that no turbidity or bacterial residue is present.

[1] = system: L. monocytogenes (CIP 103575); conditions: for MIC: Listeria monocytogenes, CIP103575, Table 5, read-out: Minimum inhibitory concentration (MIC)
Experimental: as §1

E. faecalis (ATCC 29212) = conditions: Enterococcus faecalis, ATCC29212, Table 5, read-out: Minimum inhibitory concentration (MIC)
Experimental: as §1

[2] = Table 7 comparison with reference products

Row | SMILES | MIC (S. aureus (ATCC 292213)) [mM] | MIC [1] [mM] | MIC (E. faecalis (ATCC 29212)) [mM] | Minimum inhibitory concentration (MIC) (S. aureus (ATCC 292213); [2]) [mM] | Minimum inhibitory concentration (MIC) [1, 2] [mM]
1 | CCCCCOCC(O)[C@H]1OCC(O)C1O (some centres unmarked) [Entry 1, (1,4)-sorbitan pentyl ethers] | > 4 | > 4 | > 4 |  | 
2 | CCCCCCOCC(O)[C@H]1OCC(O)C1O (some centres unmarked) [Entry 2] | > 4 | > 4 | > 4 |  | 
3 | CCCCCCCCOCC(O)[C@H]1OCC(O)C1O (some centres unmarked) [Entry 3, Octyl-1,4-sorbitan] | > 4 | > 4 | > 4 |  | 
4 | CCCCCCCCCCOCC(O)[C@H]1OCC(O)C1O (some centres unmarked) [Entry 4, Decyl-1,4-sorbitan] | > 4 | > 4 | > 4 |  | 
5 | CCCCCCCCCCCC(=O)OCC(O)CO (centres unmarked) [ML, monolaurine, reference compound] |  |  |  | 0.04 (≈ 11 µg/mL) | 0.04 (≈ 11 µg/mL)
